Patent publication US8759564B2, “Amidoacetonitrile compounds having pesticidal activity” (Novartis AG, priority 2009, dated 2014)
One block for each molecule: values may come before it.

Key:
[1] = test system: Teladorsagia circumcincta; assay: In-vivo test in sheep using peroral application; details: oral, worm burden in abomasum 19 to 21 days after treatment
Protocol: 3. In-Vivo Test on Teladorsagia circumcincta in Sheep Using Peroral Application Sheep are infected with 6,000 to 8,000 third stage larvae of Teladorsagia circumcincta (Tca) 7 to 5 days prior to treatment Animals in the treated groups are treated orally at a dose of 2 or 5 mg per kg bodyweight. […] The animals are euthanized 19 to 21 days after treatment and the worm burden in the abomasum is examined. Efficacy assessment of the compounds is determined by comparison of the treated and untreated groups worm counts, calculated using Abbott's formula as follows: % efficacy=100×(C−T)/C, where C is the geometric mean worm count of each species for the untreated control group and T, the geometric mean worm count of each species for the treated group.

Haemonchus contortus = assay: In-vivo test in Mongolian gerbils using peroral application; details: dose 0.32 mg/kg, H. contortus
Protocol: (§1) 2. In-vivo Test on Trichostrongylus colubriformis and Haemonchus contortus in Mongolian Gerbils (Meriones unquiculatus) Using Peroral Application Six to eight week old Mongolian gerbils are infected through a stomach tube with ca. 2000 third instar larvae each of T. colubriformis and H contortus. 6 days after infection, the gerbils are treated by peroral application with the test compounds, dissolved in a mixture of 2 pasts DMSO and 1 part polyethylene glycol (PEG 400). On day 9 (3 days after treatment), when most of the H. cantortus that are still present are late 4th instar larvae and most of the T. colubriformis are immature adults, the gerbils are killed in order to count the worms. The efficacy is calculated as the % reduction of the number of worms in each gerbil, compared with the geometric average of number of worms from 6 infected and untreated gerbils.

[2] = test system: Trichostrongylus colubriformis; assay: as above; details: dose 0.32 mg/kg, T. colubriformis
Protocol: as §1

Ostertagia ostertagi = assay: In-vivo test in cattle using peroral application; details: oral, worm burden in abomasum 23 to 28 days after treatment
Protocol: 4. In-vivo Test on Ostertagia ostertagi in Cattle Using Peroral Application Cattle are infected with 7,000 to 10,000 third stage larvae of Ostertagia ostertagi (Oo) 7 to 5 days prior to treatment. […] The animals are euthanized 23 to 28 days after treatment and the worm burden in the abomasum is examined. Efficacy assessment of the compounds is determined by comparison of the treated and untreated groups worm counts, calculated using Abbott's formula as follows: % efficacy=100×(C−T)/C; where C is the geometric mean worm count of each species for the untreated control group and T, the geometric mean worm count of each species for the treated group.

SMILES: CC(C#N)(COc1cc(C#N)ccc1Oc1ccc(OC(F)(F)F)cc1Cl)NC(=O)c1ccc(OC(F)(F)F)cc1 (racemic) [Compound No. 1.1, N-[1-cyano-1-methyl-2-(5-cyano-2-{2-chloro-4-trifluoromethoxy-phenoxy}-phenoxy)-ethyl]-4-trifluoromethoxybenzamide]
- Efficacy against Tca [%] ([1]; dose 2 mg/kg): 99%
- efficacy (% reduction of the number of worms) (Haemonchus contortus): 100%
- efficacy (% reduction of the number of worms) [2]: 100%
- Efficacy against Oo [%] (Ostertagia ostertagi; dose 5 mg/kg): 100%

- melting point: 136 to 137 °C
SMILES: CC(C#N)(COc1cc(C#N)ccc1Oc1ccc(OC(F)(F)F)cc1Cl)NC(=O)c1ccc(SC(F)(F)F)cc1 (racemic) [Compound No. 1.7, N-[1-cyano-1-methyl-2-(5-cyano-2-{2-chloro-4-trifluoromethoxy-phenoxy}-phenoxy)-ethyl]-4-trifluoromethylsulfanylbenzamide]
- Efficacy against Tca [%] ([1]; dose 2 mg/kg): 99%
- efficacy (% reduction of the number of worms) (Haemonchus contortus): 100%
- efficacy (% reduction of the number of worms) [2]: 100%
- Efficacy against Oo [%] (Ostertagia ostertagi; dose 5 mg/kg): 100%

- melting point: 128 to 130 °C
SMILES: CC(C#N)(COc1cc(C#N)ccc1Oc1ccc(OC(F)(F)F)cc1Cl)NC(=O)c1ccc(S(=O)(=O)C(F)(F)F)cc1 (racemic) [Compound No. 1.12, N-[1-cyano-1-methyl-2-(5-cyano-2-{2-chloro-4-trifluoromethoxy-phenoxy}-phenoxy)-ethyl]-4-trifluoromethylsulfonylbenzamide]
- Efficacy against Tca [%] ([1]; dose 2 mg/kg): 99%
- efficacy (% reduction of the number of worms) (Haemonchus contortus): 98%
- efficacy (% reduction of the number of worms) [2]: 98%
- Efficacy against Oo [%] (Ostertagia ostertagi; dose 5 mg/kg): 100%

SMILES: C[C@@](C#N)(COc1cc(C#N)ccc1Oc1ccc(OC(F)(F)F)cc1Cl)NC(=O)c1ccc(OC(F)(F)F)cc1 [Compound No. 1.3, N-[(1R)-1-cyano-2-(5-cyano-2-{2-chloro-4-trifluoromethoxyphenoxy}-phenoxy)-1-methylethyl]-4-trifluoromehoxy-benzamide]
- efficacy (% reduction of the number of worms) (Haemonchus contortus): 100%
- efficacy (% reduction of the number of worms) [2]: 100%

SMILES: CC(C#N)(COc1cc(Cl)ccc1Oc1ccc(Cl)cc1Cl)NC(=O)c1ccc(OC(F)(F)F)cc1 (stereo not shown) [reference compound]
- Efficacy against Tca [%] ([1]; dose 5 mg/kg): 15%

SMILES: CC(C#N)(COc1cc(C#N)ccc1Oc1ccc(Cl)cc1Cl)NC(=O)c1ccc(OC(F)(F)F)cc1 (stereo not shown) [reference compound]
- Efficacy against Tca [%] ([1]; dose 5 mg/kg): 0%
- Efficacy against Oo [%] (Ostertagia ostertagi; dose 20 mg/kg): 55%
